Measured values as given in patent US12264139B2, “Aryl sulfonamides as BLT1 antagonists” (Merck Sharp & Dohme LLC, priority 2015, dated 2025).

target: T1, human BLT1 receptor (Homo sapiens, UniProt Q15722); assay: BLT-1 cAMP Assay; type: cell-based; conditions: HEK293 cells recombinantly expressing human BLT1; antagonist activity vs forskolin 4 μM and LTB4 2 nM; cAMP (CisBio kit)
T1 construct: expressed in transfected cells; host or cells: HEK293
T1 sequence (Q15722 whole entry): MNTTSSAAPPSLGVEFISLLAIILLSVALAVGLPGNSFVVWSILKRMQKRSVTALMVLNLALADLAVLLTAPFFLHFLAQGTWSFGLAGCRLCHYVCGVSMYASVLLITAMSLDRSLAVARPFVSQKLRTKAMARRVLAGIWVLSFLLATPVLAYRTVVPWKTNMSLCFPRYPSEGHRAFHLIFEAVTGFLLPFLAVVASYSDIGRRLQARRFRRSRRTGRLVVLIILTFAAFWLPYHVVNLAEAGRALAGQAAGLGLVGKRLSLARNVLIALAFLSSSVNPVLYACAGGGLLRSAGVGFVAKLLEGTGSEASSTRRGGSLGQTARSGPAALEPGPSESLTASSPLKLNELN

SMILES	EC50
O=S(=O)(Nc1ccc(F)cc1-c1ccc2c(c1)OC[C@@H](Cc1ccccn1)[C@@H]2O)C(F)(F)F (single isomer, unassigned) [Example 83, 1,1,1-Trifluoro-N-(4-fluoro-2-((3,4-trans)-4-hydroxy-3-(pyridin-2-ylmethyl)chroman-7-yl)phenyl)methanesulfonamide]	14 nM
O=S(=O)(Nc1ncc(F)cc1-c1ccc2c(c1)OC[C@@H](Cc1ccccn1)[C@@H]2O)C(F)(F)F (single isomer, unassigned) [Example 84, 1,1,1-Trifluoro-N-(5-fluoro-3-((3,4-trans)-4-hydroxy-3-(pyridin-2-ylmethyl)chroman-7-yl)pyridin-2-yl)methanesulfonamide]	1610 nM
O=S(=O)(CC(F)(F)F)Nc1ncc(F)cc1-c1ccc2c(c1)OC[C@@H](Cc1ccccn1)[C@@H]2O (single isomer, unassigned) [Example 85]	63 nM
O=S(=O)(Nc1ncccc1-c1ccc2c(c1)OC[C@@H](Cc1ccccn1)[C@@H]2O)C(F)F (single isomer, unassigned) [Example 86, 1,1-Difluoro-N-(3-((3,4-trans)-4-hydroxy-3-(pyridin-2-ylmethyl)chroman-7-yl)pyridin-2-yl)methanesulfonamide]	156 nM
O=S(=O)(Nc1ncccc1-c1ccc2c(c1)OC[C@@H](Cc1ccccn1)[C@@H]2O)C(F)(F)F (single isomer, unassigned) [Example 87, 1,1,1-Trifluoro-N-(3-((3,4-trans)-4-hydroxy-3-(pyridin-2-ylmethyl)chroman-7-yl)pyridin-2-yl)methanesulfonamide]	239 nM
O=S(=O)(CC(F)(F)F)Nc1ncc(C(F)(F)F)nc1-c1ccc2c(c1)OC[C@@H](Cc1ccccn1)[C@@H]2O (single isomer, unassigned) [Example 88, 2,2,2-Trifluoro-N-(3-((3,4-trans)-4-hydroxy-3-(pyridin-2-ylmethyl)chroman-7-yl)-5-(trifluoromethyl)pyrazin-2-yl)ethanesulfonamide]	285 nM
O=S(=O)(Nc1ccccc1-c1ccc2c(c1)OC[C@H](Cc1ccccn1)[C@H]2O)C(F)(F)F [Example 54, 1,1,1-trifluoro-N-{2-[(3S,4R)-4-hydroxy-3-(pyridin-2-ylmethyl)-3,4-dihydro-2H-chromen-7-yl]phenyl}-methanesulfonamide]	55 nM
O=S(=O)(Nc1ccccc1-c1ccc2c(c1)OC[C@@H](Cc1ccccn1)[C@@H]2O)C(F)(F)F [Example 55, 1,1,1-trifluoro-N-{2-[(3R,4S)-4-hydroxy-3-(pyridin-2-ylmethyl)-3,4-dihydro-2H-chromen-7-yl]phenyl}-methanesulfonamide]	2020 nM

More lines, now with the values ahead:

EC50	SMILES
965 nM	O=S(=O)(Nc1nnc(Cl)cc1-c1ccc2c(c1)OC[C@H](Cc1ccccn1)[C@H]2O)C(F)(F)F (single isomer, unassigned) [Example 89, N-(6-chloro-4-((3R,4S or 3S,4R)-4-hydroxy-3-(pyridin-2-ylmethyl)chroman-7-yl)pyridazin-3-yl)-1,1,1-trifluoromethanesulfonamide]
3080 nM	O=S(=O)(Nc1nnccc1-c1ccc2c(c1)OC[C@@H](Cc1ccccn1)[C@@H]2O)C(F)(F)F (single isomer, unassigned) [Example 90, N-(4-((3,4-trans)-4-hydroxy-3-(pyridin-2-ylmethyl)chroman-7-yl)pyridazin-3-yl)-1,1,1-trifluoromethanesulfonamide]
2690 nM	O=S(=O)(Nc1nnc(Cl)cc1-c1ccc2c(c1)OC[C@@H](Cc1ccccn1)[C@@H]2O)C(F)(F)F (single isomer, unassigned) [Example 91, N-(6-chloro-4-((3S,4R or 3R,4S)-4-hydroxy-3-(pyridin-2-ylmethyl)chroman-7-yl)pyridazin-3-yl)-1,1,1-trifluoromethanesulfonamide]
80 nM	CC(c1csc(-c2ccccc2)n1)[C@@H]1COc2cc(-c3ccccc3NS(=O)(=O)C(F)(F)F)ccc2[C@H]1O (single isomer, unassigned) [Example 92]
268 nM	CC(c1csc(-c2ccccc2)n1)[C@@H]1COc2cc(-c3ccccc3NS(=O)(=O)C(F)(F)F)ccc2[C@H]1O (single isomer, unassigned) [Example 97]
72 nM	CC(c1ccccn1)C1COc2cc(-c3cc(F)ccc3NS(=O)(=O)C(F)(F)F)ccc2C1O (single isomer, unassigned) [Example 100, 1,1,1-trifluoro-N-(4-fluoro-2-(4-hydroxy-3-(1-(pyridin-2-yl)ethyl)chroman-7-yl)phenyl) methanesulfonamide]
678 nM	CC(c1ccccn1)C1COc2cc(-c3cc(F)ccc3NS(=O)(=O)C(F)(F)F)ccc2C1O (single isomer, unassigned) [Example 101, 1,1,1-trifluoro-N-(4-fluoro-2-(4-hydroxy-3-(1-(pyridin-2-yl)ethyl)chroman-7-yl)phenyl) methanesulfonamide]
78 nM	CC(c1ccccn1)C1COc2cc(-c3cc(F)ccc3NS(=O)(=O)C(F)(F)F)ccc2C1O (single isomer, unassigned) [Example 102, 1,1,1-trifluoro-N-(4-fluoro-2-(4-hydroxy-3-(1-(pyridin-2-yl)ethyl)chroman-7-yl)phenyl) methanesulfonamide]
1310 nM	CC(c1ccccn1)C1COc2cc(-c3cc(F)ccc3NS(=O)(=O)C(F)(F)F)ccc2C1O (single isomer, unassigned) [Example 103, 1,1,1-trifluoro-N-(4-fluoro-2-(4-hydroxy-3-(1-(pyridin-2-yl)ethyl)chroman-7-yl)phenyl) methanesulfonamide]
1 nM	CC(c1ccccn1)C1COc2cc(-c3cc(F)ccc3NS(=O)(=O)C(F)(F)F)ccc2C1O (stereo not drawn) [Example 99, 1,1,1-trifluoro-N-(4-fluoro-2-(4-hydroxy-3-(1-(pyridin-2-yl)ethyl)chroman-7-yl)phenyl) methanesulfonamide]
